Paper PMC7932537, “Quantitative profiling of protease specificity” (PLoS Computational Biology, 2021)

Columns and labels:
[1] = target: MMP-9 (Homo sapiens, UniProt P14780); assay: K(obs) of individual phage substrates (set of 1369); type: biochemical; conditions: MMP9
[2] = tested on: MMP-2; assay: Substrate phage display with NGS: relative probability (RP) of P3-P1' tetramer clusters; type: biochemical, human; conditions: MMP2;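 further: ratio of tetramer probability after protease selection to that in naive phage library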
[3] = target: T1, MMP-2 (Homo sapiens, UniProt P08253); assay: K(obs) of individual phage substrates (set of 1369); type: biochemical; conditions: MMP2
T1 sequence (P08253 110-660): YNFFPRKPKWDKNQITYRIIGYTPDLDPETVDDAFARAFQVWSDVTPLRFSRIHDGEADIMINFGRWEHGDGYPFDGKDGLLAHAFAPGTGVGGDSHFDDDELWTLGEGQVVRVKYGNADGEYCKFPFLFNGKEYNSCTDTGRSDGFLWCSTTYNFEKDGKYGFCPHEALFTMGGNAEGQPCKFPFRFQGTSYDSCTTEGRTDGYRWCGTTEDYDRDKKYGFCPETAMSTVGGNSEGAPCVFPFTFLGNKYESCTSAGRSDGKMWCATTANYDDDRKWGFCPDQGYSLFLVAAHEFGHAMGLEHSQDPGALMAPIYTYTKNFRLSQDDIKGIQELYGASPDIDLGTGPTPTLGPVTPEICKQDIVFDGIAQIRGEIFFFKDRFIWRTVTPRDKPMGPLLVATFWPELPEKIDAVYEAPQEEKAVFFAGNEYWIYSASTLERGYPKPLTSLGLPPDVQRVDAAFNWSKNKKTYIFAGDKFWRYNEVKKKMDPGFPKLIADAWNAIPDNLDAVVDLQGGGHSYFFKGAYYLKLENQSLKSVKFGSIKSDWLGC

[4] = individual phage substrate of the set of 1369 peptides, dash in the sequence marks the cleavage position
[5] = RP of the P3-P1' tetramer contained in the substrate
[6] = individual phage substrate of the set of 1369 peptides, cleavage position marked by '-'
[7] = individual phage substrates, set of 1369 peptides, hyphen in sequence marks cleavage position
[8] = RP of the P3-P1' tetramer contained in the substrate (substrate phage display with NGS)
[9] = individual phage substrates, set of 1369 peptides, cleavage position marked by hyphen in sequence

Chain of MMP-9 (P14780 94-707): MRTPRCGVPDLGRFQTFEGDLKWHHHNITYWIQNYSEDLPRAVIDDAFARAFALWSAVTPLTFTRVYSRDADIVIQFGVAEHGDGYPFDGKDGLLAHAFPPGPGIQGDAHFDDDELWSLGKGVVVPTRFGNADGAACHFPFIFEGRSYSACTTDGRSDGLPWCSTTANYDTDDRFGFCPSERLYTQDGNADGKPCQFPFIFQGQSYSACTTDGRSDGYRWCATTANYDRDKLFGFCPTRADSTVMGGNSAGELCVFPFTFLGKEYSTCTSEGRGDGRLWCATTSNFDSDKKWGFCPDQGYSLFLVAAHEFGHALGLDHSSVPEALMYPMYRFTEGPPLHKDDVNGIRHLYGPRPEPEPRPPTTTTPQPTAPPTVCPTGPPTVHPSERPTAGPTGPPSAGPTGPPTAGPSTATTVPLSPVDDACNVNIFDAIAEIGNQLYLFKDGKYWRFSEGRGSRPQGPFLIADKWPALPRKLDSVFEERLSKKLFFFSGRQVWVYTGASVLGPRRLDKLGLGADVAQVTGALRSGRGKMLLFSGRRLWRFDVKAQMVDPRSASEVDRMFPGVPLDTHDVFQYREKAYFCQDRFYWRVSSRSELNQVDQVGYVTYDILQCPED

| Substance | Kobs [1, 4] [M⁻¹ s⁻¹] | relative probability (RP) [2, 5] | Kobs [3, 6] [M⁻¹ s⁻¹] | Kobs [1, 7] [M⁻¹ s⁻¹] | relative probability (RP) [2, 8] | Kobs [3, 9] [M⁻¹ s⁻¹] |
| --- | --- | --- | --- | --- | --- | --- |
| FGPYA-MTASG | 12792.1 | 28.0901 | 1870.4 | – | – | – |
| GKVEY-LVTAS | – | – | – | 0 | 5.301 | 0 |
| SGPAR-LISTA | – | – | – | 12792.1 | 34.9166 | 12792.1 |
| SGPHH-LTLTA | 1925.41 | 27.4742 | 1327.88 | – | – | – |
| RQWRA-LTASG | 4470.66 | 22.4074 | 5889.62 | – | – | – |
| IGPQF-LTASG | 12792.1 | 26.3159 | 12792.1 | – | – | – |
| GEPNY-LKTAS | – | – | – | 1239.69 | 17.2533 | 2687.73 |
| FSQLA-MTASG | – | – | – | 0 | 5.241 | 0 |
| GSGAS-LQMLT | – | – | – | 84.609 | 9.538 | 3253.29 |
| RQWYG-ITASG | 4922.1 | 0.0533 | 142.481 | – | – | – |
| FQFEH-LTASG | – | – | – | 113.394 | 1.21 | 874.197 |
| PGPES-LTASG | – | – | – | 12792.1 | 26.0767 | 10866.7 |
| SGGSG-LWATP | 1071.29 | 1.9698 | 1870.4 | – | – | – |
| GIAHQ-LKTAS | – | – | – | 201.585 | 4.1 | 726.013 |
| GIPFF-MTTAS | – | – | – | 3079.62 | 3.509 | 0 |
| GGSGM-LKLQP | – | – | – | 0 | 1.312 | 0 |
| VIPRP-LTASG | 12792.1 | 34.3303 | 12792.1 | – | – | – |
| ARIEY-LTASG | 654.784 | 5.366 | 1816.46 | – | – | – |
| VNARM-LTASG | – | – | – | 2218.08 | 2.9901 | 1196.62 |
| GLAWG-LYTAS | – | – | – | 2409.72 | 17.7408 | 2916.17 |
| FMPRN-TASGA | 12792.1 | 2.5391 | 2837.92 | – | – | – |
| YCSLP-LTASG | – | – | – | 113.394 | 8.6373 | 451.441 |
| VVYRG-LTASG | – | – | – | 2476.66 | 5.445 | 2761.81 |
| SGVWN-LIMTA | 6688.74 | 14.4124 | 619.843 | – | – | – |
| TVVAY-ITASG | 1112.44 | 18.7179 | 12792.1 | – | – | – |
| GVVLN-LETAS | 1465.65 | 18.9065 | 1196.62 | – | – | – |
| NRFSN-LTASG | – | – | – | 0 | 24 | 8941.32 |

| Substance | Kobs [1, 4] [M⁻¹ s⁻¹] | relative probability (RP) [2, 5] | Kobs [3, 6] [M⁻¹ s⁻¹] | Kobs [1, 7] [M⁻¹ s⁻¹] | relative probability (RP) [2, 8] | Kobs [3, 9] [M⁻¹ s⁻¹] |
| --- | --- | --- | --- | --- | --- | --- |
| EHAWN-LTASG | 2280.5 | 14.0049 | 2218.08 | – | – | – |
| GFSAN-LKTAS | 484.315 | 23.7816 | 5667.28 | – | – | – |
| TKYAY-ITASG | – | – | – | 0 | 1.709 | 0 |
| GIVGM-LQTAS | 323.705 | 28.5913 | 4613.14 | – | – | – |
| VPWGN-LTASG | – | – | – | 0 | 14.7295 | 5461.43 |
| ATIAH-LTASG | – | – | – | 1465.65 | 32.9345 | 12792.1 |
| GEVRG-LRTAS | – | – | – | 7386.83 | 29.092 | 12792.1 |
| PRLTH-LTASG | – | – | – | 27.918 | 4.299 | 1610.61 |
| SGPAY-WRTTA | – | – | – | 1610.61 | 27.2209 | 12792.1 |
| SGWSN-LMRTA | – | – | – | 0 | 17.9326 | 0 |
| RNPEW-MTASG | – | – | – | 4763.33 | 12.3271 | 2996.69 |
| TVPQM-ITASG | 7815.03 | 16.6558 | 5269.78 | – | – | – |
| RQLAH-ITASG | – | – | – | 27.918 | 25.9365 | 10866.7 |
| SLVLN-MTASG | – | – | – | 4613.14 | 19.025 | 3438.54 |
| YKPAG-LTASG | – | – | – | 12792.1 | 36.0156 | 10866.7 |
| VLPRS-WTASG | – | – | – | 5889.62 | 32.796 | 8321.48 |
| GKLKH-LQTAS | – | – | – | 0 | 11.1441 | 726.013 |
| GFWSS-LRTAS | 0 | 16.6561 | 5461.43 | – | – | – |
| DSLAW-LTASG | – | – | – | 1561.44 | 22.0358 | 10866.7 |
| IEAWS-LTASG | – | – | – | 7015.91 | 7.006 | 762.325 |
| SGRRN-LMNTA | – | – | – | 484.315 | 6.1579 | 912.511 |
| TILRN-ITASG | 2837.92 | 19.0698 | 7815.03 | – | – | – |
| HRHAH-LTASG | 0 | 20.0775 | 7015.91 | – | – | – |
| VFTRN-LTASG | 6396.07 | 12.3403 | 12792.1 | – | – | – |
| TGVSW-LTASG | – | – | – | 10866.7 | 30.6564 | 12792.1 |
| GRPAD-LRTAS | 12792.1 | 30.0217 | 12792.1 | – | – | – |
